The values that follow come from article PMC9578396, “Intrinsic Antibacterial Activity of Xeruborbactam In Vitro: Assessing Spectrum and Mode of Action” (Antimicrobial Agents and Chemotherapy, 2022).

≈ marks a conversion by molar mass, not a printed value.

The subject of experiment [1] is PBP2. Also on record: method as in PMID 18250190. The conditions noted are these: value in parentheses; E. coli MC1400; cited from earlier work.
For experiment [2], the target named is PBP2 (Klebsiella pneumoniae, UniProt A6T696). More on the design: method as in PMID 29712652. The conditions noted are these: read-out: IC50, PBP2; value in parentheses; K. pneumoniae ATCC 43816; cited from earlier work.
Experiment [3] has as its target T1, PBP2 (Acinetobacter baumannii, UniProt D0C8Z9).
T1 construct: Five microliters of total bacterial membrane preparation was mixed with 5 μL of a test compound; endogenous in cells
T1 sequence (D0C8Z9 1-672): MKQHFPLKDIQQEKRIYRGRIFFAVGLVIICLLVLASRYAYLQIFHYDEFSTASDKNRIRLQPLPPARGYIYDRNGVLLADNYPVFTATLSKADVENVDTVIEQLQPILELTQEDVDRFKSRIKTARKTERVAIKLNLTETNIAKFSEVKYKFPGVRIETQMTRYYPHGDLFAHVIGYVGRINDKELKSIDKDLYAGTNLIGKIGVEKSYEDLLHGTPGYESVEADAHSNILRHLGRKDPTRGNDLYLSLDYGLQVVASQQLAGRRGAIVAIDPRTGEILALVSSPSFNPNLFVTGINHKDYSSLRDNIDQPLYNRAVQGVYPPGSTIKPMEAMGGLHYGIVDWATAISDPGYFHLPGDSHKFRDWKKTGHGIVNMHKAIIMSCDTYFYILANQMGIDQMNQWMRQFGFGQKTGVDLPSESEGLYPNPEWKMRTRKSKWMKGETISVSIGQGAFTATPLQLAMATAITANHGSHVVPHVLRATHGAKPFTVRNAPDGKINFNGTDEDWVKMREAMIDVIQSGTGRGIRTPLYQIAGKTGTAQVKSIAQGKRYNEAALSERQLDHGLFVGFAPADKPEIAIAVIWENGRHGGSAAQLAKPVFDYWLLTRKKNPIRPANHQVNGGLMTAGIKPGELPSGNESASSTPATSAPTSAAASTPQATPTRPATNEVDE
Also on record: method as in earlier work. The settings on record: value in parentheses; A. baumannii ATCC 19606; cited from earlier work.

The next experiment concerns the target PBP3 (Acinetobacter baumannii, UniProt A0ABX6CK25). Also on record: method as in earlier work. The settings on record: read-out: IC50, PBP3; value in parentheses; A. baumannii ATCC 19606; cited from earlier work.
The subject of experiment [4] is strain AB1007 of A. baumannii. Put plainly: Minimal bactericidal concentration (MBC), A. baumannii. The class given is cell-based. The conditions noted are these: Acinetobacter baumannii.
The subject of experiment [5] is A. baumannii strain AB1007. The conditions noted are these: xeruborbactam at ≥2× MIC, 48 h at 37°C. As to the method: (§1) Beta-lactamase-negative strains of E. coli (strain ECM5497), A. baumannii (strain AB1007), and K. pneumoniae (strain KPM1026a) were used in resistance development studies. […] […] Single colonies from xeruborbactam-containing plates were grown twice on a nonselective medium before their antimicrobial-resistance levels were assessed. For K. pneumoniae KPM1026a, several independent cultures were used in resistance studies.

The next experiment deals with E. coli strain ECM5497. The conditions noted are these: xeruborbactam at ≥2× MIC, 48 h at 37°C. How it is done:
as §1

Experiment [6] deals with P. aeruginosa strain PAM1154. Put plainly: Fluorescence microscopy, cellular morphology. Type of experiment: cell-based, Pseudomonas aeruginosa. The conditions noted are these: treated at 1× or 2× MIC. As to the method: Single colonies of K. pneumoniae strain KPM1026a, A. baumannii strain ATCC 17978, and P. aeruginosa strain PAM1154 were picked from LB agar plates, inoculated in cation-adjusted Mueller-Hinton broth (CA-MHB), and incubated overnight at 30°C with rolling. Overnight cultures were diluted into fresh CA-MHB and incubated at 30°C, with rolling, until they reached an OD600 of ≈0.12 to 0.15 (equivalent to ~2 × 10^8 CFU/mL). Samples were then treated with compounds and incubated at 30°C, with rolling. After 1 or 2 h of treatment, cells were collected and stained with a dye mix containing FM4-64 (1 μg/mL), DAPI (4′,6-diamidino-2-phenylindole) (2 μg/mL), and SYTOX green (0.5 μM) (Molecular Probes, Invitrogen, or Thermo Fisher Scientific). Cells were transferred onto an agarose pad containing 1.2% agarose and 20% LB medium for microscopy. Microscopy was performed as previously described ([34]).

The subject of experiment [7] is major PBPs in total membrane preparations. Put plainly: Bocillin FL competition PBP binding assay, probe incubation at 30°C. More on the design: species or system E. coli, K. pneumoniae, A. baumannii, and P. aeruginosa. The conditions noted are these: concentrations up to 300 μM; fluorescent probe incubation at 30°C. How it is done: Ten milliliters of overnight bacterial culture was inoculated in 1 L of LB medium and grown to an OD600 of 0.7 to 0.9. The cell pellet was washed once with 50 mL of solution containing 100 mM Na-phosphate at pH 7.0 and 100 mM NaCl and resuspended in 10 mL of the same buffer with one tablet of EDTA-free mini-protease inhibitor and 10 mg of lysozyme. Cell suspensions were incubated for 45 min at 37°C, and then 200 μL of DNase I was added along with MgSO4 (to a final concentration of 10 mM), followed by three cycles of freeze-thawing (10 min and 20 min, respectively). Four cycles of sonication at maximum power were performed next, each cycle lasting for 30 s with 1 min on ice between cycles. The cell suspension was centrifuged at 12,000 × g for 10 min at 4°C. The supernatant was collected and centrifuged at 100,000 × g for 45 min at 4°C. The pellet was washed three times with 10 mL of 100 mM Na-phosphate, pH 7.0, by resuspension and subsequent centrifugation at 100,000 × g for 10 min at 4°C. The pellet was finally resuspended in 1.5 mL of 100 mM Na-phosphate, pH 7.0, and passed several times through a Dounce homogenizer (tight pestle). […]
Five microliters of total bacterial membrane preparation was mixed with 5 μL of a test compound at a desired concentration in 100 mM Na-phosphate buffer, pH 7.0. […] IC50 values were calculated with Prism software (GraphPad).

As a reminder, the IC50 is the concentration that gives 50% inhibition. What is called MBC is the smallest concentration meeting the test's criterion for killing. Higher therefore signals less potent killing.

Sequence of PBP3 (A0ABX6CK25 entry or part of it): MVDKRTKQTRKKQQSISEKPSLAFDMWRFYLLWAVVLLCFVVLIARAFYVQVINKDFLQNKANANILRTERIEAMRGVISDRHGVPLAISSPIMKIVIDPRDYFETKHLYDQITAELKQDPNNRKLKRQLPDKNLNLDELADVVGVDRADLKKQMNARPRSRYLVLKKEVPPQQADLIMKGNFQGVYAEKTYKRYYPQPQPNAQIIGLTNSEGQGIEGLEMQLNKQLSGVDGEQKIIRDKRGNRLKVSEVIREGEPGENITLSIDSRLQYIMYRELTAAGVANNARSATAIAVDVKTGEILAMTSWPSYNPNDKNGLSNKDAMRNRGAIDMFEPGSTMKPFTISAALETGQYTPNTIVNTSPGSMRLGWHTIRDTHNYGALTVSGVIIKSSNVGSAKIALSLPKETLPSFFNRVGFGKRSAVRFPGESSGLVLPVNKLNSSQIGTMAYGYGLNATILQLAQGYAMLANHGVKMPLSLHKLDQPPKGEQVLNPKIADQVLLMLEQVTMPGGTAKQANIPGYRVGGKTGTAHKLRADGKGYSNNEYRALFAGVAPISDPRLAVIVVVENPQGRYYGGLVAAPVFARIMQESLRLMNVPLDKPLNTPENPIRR
Sequence of PBP2 (Klebsiella pneumoniae, UniProt A6T696) (A6T696 entry or part of it): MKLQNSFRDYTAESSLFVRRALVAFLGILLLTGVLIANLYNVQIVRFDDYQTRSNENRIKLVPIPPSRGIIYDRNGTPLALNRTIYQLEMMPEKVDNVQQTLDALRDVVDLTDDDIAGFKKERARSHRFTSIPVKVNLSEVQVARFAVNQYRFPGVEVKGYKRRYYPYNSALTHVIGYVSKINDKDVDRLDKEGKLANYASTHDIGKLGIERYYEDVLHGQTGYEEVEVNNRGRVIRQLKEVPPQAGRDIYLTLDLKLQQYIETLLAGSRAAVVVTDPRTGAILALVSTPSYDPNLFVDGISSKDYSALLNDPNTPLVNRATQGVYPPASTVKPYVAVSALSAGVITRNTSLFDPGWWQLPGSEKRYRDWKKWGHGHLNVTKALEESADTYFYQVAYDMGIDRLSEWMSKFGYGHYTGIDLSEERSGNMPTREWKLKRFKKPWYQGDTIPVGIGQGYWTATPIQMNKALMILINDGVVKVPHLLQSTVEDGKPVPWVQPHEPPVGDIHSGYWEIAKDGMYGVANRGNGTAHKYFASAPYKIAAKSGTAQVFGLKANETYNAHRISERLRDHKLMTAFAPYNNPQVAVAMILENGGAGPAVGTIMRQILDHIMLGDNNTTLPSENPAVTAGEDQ

Consider `C[C@@H](O)[C@H]1C(=O)N2C(C(=O)O)=C(S[C@@H]3CN[C@H](C(=O)N(C)C)C3)[C@H](C)[C@H]12` [Meropenem], for which the IC50 is 0.003 µM with PBP2 [1], under 0.02 µM on PBP2 [2], under 0.08 µM at PBP2 [3] and 0.33 µM at PBP3.
In experiment [4], `O=C(O)c1c(F)ccc2c1OB(O)[C@@H]1C[C@H]21` [Xeruborbactam] had an MBC of 16 µg/mL (≈ 72.1 µM). The “frequency of resistance (FOR)” value (in experiment [5]; in the experiment on E. coli strain ECM5497) was < 2 × 10^−9 each time. Moreover, the cellular morphology entry in experiment [6] is “filamentation and bulge formation at midcell and eventual cell lysis from the midpoint”. The “interaction with PBPs” value in experiment [7] is recorded as “No detectable interactions”.
